Several values for one entry are separate records, joined by “and”; a condition that tells them apart may be missing. Equal entries are not always repeated.
Molecular target: T1, STK10 (Homo sapiens, UniProt O94804)
T1 construct: purchased in-house DSF kinase panel (SGC-style construct names; the trailing letter is the construct ID)
Assay: PhosphoSens in vitro activity assay
Format: biochemical
Details: ATP 160 μM

T1 sequence (O94804 18-317 limits assumed): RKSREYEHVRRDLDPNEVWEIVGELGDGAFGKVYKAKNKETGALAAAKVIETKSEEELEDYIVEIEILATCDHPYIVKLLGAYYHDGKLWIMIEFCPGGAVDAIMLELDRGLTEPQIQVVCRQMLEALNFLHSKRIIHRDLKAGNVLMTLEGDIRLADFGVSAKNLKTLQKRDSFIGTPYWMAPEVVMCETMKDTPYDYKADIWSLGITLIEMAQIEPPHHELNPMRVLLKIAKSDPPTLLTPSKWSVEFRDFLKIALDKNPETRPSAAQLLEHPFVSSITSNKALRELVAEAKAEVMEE

Row | Structure (SMILES) | IC50
1 | O=C(NCc1cccc(Cl)c1)Nc1ccc2cc1OCCOCCNc1ccn3ncc-2c3n1 [compound 18] | 2570 ± 110 nM
2 | O=C(NCc1ccc(Cl)cc1F)Nc1ccc2cc1OCCOCCNc1ccn3ncc-2c3n1 [compound 21] | 2620 ± 610 nM
3 | Cc1cc(Cl)ccc1CNC(=O)Nc1ccc2cc1OCCOCCNc1ccn3ncc-2c3n1 [compound 23] | 850 nM and < 1000 nM
4 | Cc1cc(Br)ccc1CNC(=O)Nc1ccc2cc1OCCOCCNc1ccn3ncc-2c3n1 [compound 24] | 4620 ± 880 nM
5 | Cc1ccc(F)cc1CNC(=O)Nc1ccc2cc1OCCOCCNc1ccn3ncc-2c3n1 [compound 26] | 3530 ± 570 nM

More lines, in order of falling IC50, values ahead:

Row | IC50 | Structure (SMILES)
6 | 1530 ± 260 nM | O=C(NCc1ccccc1Cl)Nc1ccc2cc1OCCOCCNc1ccn3ncc-2c3n1 [compound 17]
7 | 1430 ± 280 nM | O=C(NCc1ccc(Cl)cc1Cl)Nc1ccc2cc1OCCOCCNc1ccn3ncc-2c3n1 [compound 20]
8 | 950 ± 120 nM | O=C(NCc1ccc(Cl)cc1)Nc1ccc2cc1OCCOCCNc1ccn3ncc-2c3n1 [compound 19]
9 | 880 ± 110 nM | O=C(NCc1ccccc1)Nc1ccc2cc1OCCOCCNc1ccn3ncc-2c3n1 [compound 16]

Molecular target: T2, GSG2A (Homo sapiens, UniProt Q8TF76)
T2 construct: purchased in-house DSF kinase panel (SGC-style construct names; the trailing letter is the construct ID)
T2 sequence (Q8TF76 465-798): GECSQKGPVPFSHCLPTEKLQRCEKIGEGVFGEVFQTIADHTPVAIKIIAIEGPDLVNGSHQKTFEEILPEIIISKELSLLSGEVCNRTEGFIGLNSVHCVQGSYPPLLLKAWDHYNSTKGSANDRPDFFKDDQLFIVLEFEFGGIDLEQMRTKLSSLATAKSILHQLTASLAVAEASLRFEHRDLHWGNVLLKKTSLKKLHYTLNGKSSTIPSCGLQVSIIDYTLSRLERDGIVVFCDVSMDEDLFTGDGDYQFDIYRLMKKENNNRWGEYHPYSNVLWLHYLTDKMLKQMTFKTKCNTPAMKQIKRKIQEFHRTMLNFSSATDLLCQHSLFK
Assay: DSF Tm panel
Format: binding
Details: 10 μM compound

Row | Structure (SMILES) | ΔTm at 10 µM
10 | O=C(NCc1cccc(Cl)c1)Nc1ccc2cc1OCCOCCNc1ccn3ncc-2c3n1 [compound 18] | 0 °C
11 | O=C(NCc1ccc(Cl)cc1F)Nc1ccc2cc1OCCOCCNc1ccn3ncc-2c3n1 [compound 21] | 0.1 °C
12 | Cc1cc(Cl)ccc1CNC(=O)Nc1ccc2cc1OCCOCCNc1ccn3ncc-2c3n1 [compound 23] | -0.1 °C
13 | Cc1cc(Br)ccc1CNC(=O)Nc1ccc2cc1OCCOCCNc1ccn3ncc-2c3n1 [compound 24] | 0 °C
14 | Cc1ccc(F)cc1CNC(=O)Nc1ccc2cc1OCCOCCNc1ccn3ncc-2c3n1 [compound 26] | 0.6 °C

Now from value to molecule:

Row | ΔTm at 10 µM | Structure (SMILES)
15 | -0.3 °C | O=C(NCc1ccccc1Cl)Nc1ccc2cc1OCCOCCNc1ccn3ncc-2c3n1 [compound 17]
16 | 0 °C | O=C(NCc1ccc(Cl)cc1Cl)Nc1ccc2cc1OCCOCCNc1ccn3ncc-2c3n1 [compound 20]
17 | -0.2 °C | O=C(NCc1ccc(Cl)cc1)Nc1ccc2cc1OCCOCCNc1ccn3ncc-2c3n1 [compound 19]
18 | 0.5 °C | O=C(NCc1ccccc1)Nc1ccc2cc1OCCOCCNc1ccn3ncc-2c3n1 [compound 16]

Molecular target: T3, CAMKK2B (Homo sapiens, UniProt Q96RR4)
T3 construct: purchased in-house DSF kinase panel (SGC-style construct names; the trailing letter is the construct ID)
Assay: DSF Tm panel
Format: binding
Details: 10 μM compound

T3 sequence (Q96RR4 161-449): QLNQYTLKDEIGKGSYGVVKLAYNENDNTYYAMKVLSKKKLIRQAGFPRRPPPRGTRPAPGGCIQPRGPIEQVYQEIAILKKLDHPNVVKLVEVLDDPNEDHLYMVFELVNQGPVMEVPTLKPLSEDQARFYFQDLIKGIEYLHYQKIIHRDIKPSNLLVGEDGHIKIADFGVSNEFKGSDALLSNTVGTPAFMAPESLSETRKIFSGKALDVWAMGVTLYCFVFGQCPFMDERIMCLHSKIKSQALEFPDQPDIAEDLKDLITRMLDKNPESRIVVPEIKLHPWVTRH

Row | Structure (SMILES) | ΔTm at 10 µM
19 | O=C(NCc1cccc(Cl)c1)Nc1ccc2cc1OCCOCCNc1ccn3ncc-2c3n1 [compound 18] | 3.1 °C
20 | O=C(NCc1ccc(Cl)cc1F)Nc1ccc2cc1OCCOCCNc1ccn3ncc-2c3n1 [compound 21] | 3.5 °C
21 | Cc1cc(Cl)ccc1CNC(=O)Nc1ccc2cc1OCCOCCNc1ccn3ncc-2c3n1 [compound 23] | 1.9 °C
22 | Cc1cc(Br)ccc1CNC(=O)Nc1ccc2cc1OCCOCCNc1ccn3ncc-2c3n1 [compound 24] | 0.7 °C
23 | Cc1ccc(F)cc1CNC(=O)Nc1ccc2cc1OCCOCCNc1ccn3ncc-2c3n1 [compound 26] | 0.9 °C

The remaining lines, values ahead:

Row | ΔTm at 10 µM | Structure (SMILES)
24 | 3.3 °C | O=C(NCc1ccccc1Cl)Nc1ccc2cc1OCCOCCNc1ccn3ncc-2c3n1 [compound 17]
25 | 1.2 °C | O=C(NCc1ccc(Cl)cc1Cl)Nc1ccc2cc1OCCOCCNc1ccn3ncc-2c3n1 [compound 20]
26 | 3.4 °C | O=C(NCc1ccc(Cl)cc1)Nc1ccc2cc1OCCOCCNc1ccn3ncc-2c3n1 [compound 19]
27 | 3.8 °C | O=C(NCc1ccccc1)Nc1ccc2cc1OCCOCCNc1ccn3ncc-2c3n1 [compound 16]

Molecular target: T4, PDK4A (Homo sapiens, UniProt Q16654)
T4 construct: purchased in-house DSF kinase panel (SGC-style construct names; the trailing letter is the construct ID)
Assay: DSF Tm panel
Format: binding
Details: 10 μM compound

T4 sequence (Q16654 whole entry): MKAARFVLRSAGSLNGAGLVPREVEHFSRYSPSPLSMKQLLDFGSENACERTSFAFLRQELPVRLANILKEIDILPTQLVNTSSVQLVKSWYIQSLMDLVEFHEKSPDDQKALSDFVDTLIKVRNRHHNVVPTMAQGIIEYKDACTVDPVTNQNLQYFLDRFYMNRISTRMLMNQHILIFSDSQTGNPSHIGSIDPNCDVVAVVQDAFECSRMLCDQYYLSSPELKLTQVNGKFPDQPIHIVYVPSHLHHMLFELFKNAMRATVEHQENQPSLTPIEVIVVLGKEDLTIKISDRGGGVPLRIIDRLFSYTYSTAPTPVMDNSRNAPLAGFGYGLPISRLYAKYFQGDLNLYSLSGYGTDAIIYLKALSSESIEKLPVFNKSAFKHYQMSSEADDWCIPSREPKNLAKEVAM

Row | Structure (SMILES) | ΔTm at 10 µM
28 | O=C(NCc1cccc(Cl)c1)Nc1ccc2cc1OCCOCCNc1ccn3ncc-2c3n1 [compound 18] | 1 °C
29 | O=C(NCc1ccc(Cl)cc1F)Nc1ccc2cc1OCCOCCNc1ccn3ncc-2c3n1 [compound 21] | 1.1 °C
30 | Cc1cc(Cl)ccc1CNC(=O)Nc1ccc2cc1OCCOCCNc1ccn3ncc-2c3n1 [compound 23] | 0.6 °C

Next, values leading:

Row | ΔTm at 10 µM | Structure (SMILES)
31 | 0.8 °C | O=C(NCc1ccccc1Cl)Nc1ccc2cc1OCCOCCNc1ccn3ncc-2c3n1 [compound 17]
32 | 1.1 °C | O=C(NCc1ccc(Cl)cc1Cl)Nc1ccc2cc1OCCOCCNc1ccn3ncc-2c3n1 [compound 20]
33 | 0.8 °C | O=C(NCc1ccc(Cl)cc1)Nc1ccc2cc1OCCOCCNc1ccn3ncc-2c3n1 [compound 19]
34 | -0.7 °C | O=C(NCc1ccccc1)Nc1ccc2cc1OCCOCCNc1ccn3ncc-2c3n1 [compound 16]

Molecular target: T5, MAPKAPK2A (Homo sapiens, UniProt P49137)
T5 construct: purchased in-house DSF kinase panel (SGC-style construct names; the trailing letter is the construct ID)
Assay: DSF Tm panel
Format: binding
Details: 10 μM compound

T5 sequence (P49137 64-325): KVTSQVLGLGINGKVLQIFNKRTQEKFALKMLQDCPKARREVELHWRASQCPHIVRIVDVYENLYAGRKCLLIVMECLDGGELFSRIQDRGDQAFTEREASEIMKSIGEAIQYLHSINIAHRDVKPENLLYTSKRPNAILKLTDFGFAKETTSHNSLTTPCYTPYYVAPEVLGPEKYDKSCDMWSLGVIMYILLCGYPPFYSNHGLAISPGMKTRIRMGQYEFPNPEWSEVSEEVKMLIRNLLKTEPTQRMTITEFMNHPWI

Row | Structure (SMILES) | ΔTm at 10 µM
35 | Cc1cc(Br)ccc1CNC(=O)Nc1ccc2cc1OCCOCCNc1ccn3ncc-2c3n1 [compound 24] | 0.1 °C
36 | Cc1ccc(F)cc1CNC(=O)Nc1ccc2cc1OCCOCCNc1ccn3ncc-2c3n1 [compound 26] | 0.1 °C

Molecular target: T6, MAP2K7A (Homo sapiens, UniProt O14733)
T6 construct: purchased in-house DSF kinase panel (SGC-style construct names; the trailing letter is the construct ID)
T6 sequence (O14733 120-400): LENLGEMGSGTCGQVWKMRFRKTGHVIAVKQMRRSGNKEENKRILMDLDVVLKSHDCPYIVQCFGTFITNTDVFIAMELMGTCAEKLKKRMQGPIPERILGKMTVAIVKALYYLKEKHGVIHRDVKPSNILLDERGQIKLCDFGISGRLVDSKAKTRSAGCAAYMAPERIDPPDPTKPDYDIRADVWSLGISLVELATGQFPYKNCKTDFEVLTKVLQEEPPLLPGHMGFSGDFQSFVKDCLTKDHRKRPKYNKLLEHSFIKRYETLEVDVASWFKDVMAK
Assay: DSF Tm panel
Format: binding
Details: 10 μM compound

Row | Structure (SMILES) | ΔTm at 10 µM
37 | Cc1cc(Br)ccc1CNC(=O)Nc1ccc2cc1OCCOCCNc1ccn3ncc-2c3n1 [compound 24] | 0.3 °C
38 | Cc1ccc(F)cc1CNC(=O)Nc1ccc2cc1OCCOCCNc1ccn3ncc-2c3n1 [compound 26] | 0.1 °C

Molecular target: T7, MARK4A (Homo sapiens, UniProt Q96L34)
T7 construct: purchased in-house DSF kinase panel (SGC-style construct names; the trailing letter is the construct ID)
Assay: DSF Tm panel
Format: binding
Details: 10 μM compound

T7 sequence (Q96L34 59-310): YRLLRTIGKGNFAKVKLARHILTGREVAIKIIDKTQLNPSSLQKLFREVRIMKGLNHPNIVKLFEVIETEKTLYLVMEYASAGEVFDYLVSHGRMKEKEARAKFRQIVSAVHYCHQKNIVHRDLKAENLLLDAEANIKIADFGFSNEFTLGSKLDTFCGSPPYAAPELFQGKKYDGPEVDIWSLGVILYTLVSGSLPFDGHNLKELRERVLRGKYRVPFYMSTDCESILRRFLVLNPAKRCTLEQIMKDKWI

Row | Structure (SMILES) | ΔTm at 10 µM
39 | O=C(NCc1cccc(Cl)c1)Nc1ccc2cc1OCCOCCNc1ccn3ncc-2c3n1 [compound 18] | 1.4 °C
40 | O=C(NCc1ccc(Cl)cc1F)Nc1ccc2cc1OCCOCCNc1ccn3ncc-2c3n1 [compound 21] | 2.6 °C
41 | Cc1cc(Cl)ccc1CNC(=O)Nc1ccc2cc1OCCOCCNc1ccn3ncc-2c3n1 [compound 23] | 1.5 °C
42 | Cc1cc(Br)ccc1CNC(=O)Nc1ccc2cc1OCCOCCNc1ccn3ncc-2c3n1 [compound 24] | 1.9 °C
43 | Cc1ccc(F)cc1CNC(=O)Nc1ccc2cc1OCCOCCNc1ccn3ncc-2c3n1 [compound 26] | 1.9 °C

Now from value to molecule:

Row | ΔTm at 10 µM | Structure (SMILES)
44 | 2.2 °C | O=C(NCc1ccccc1Cl)Nc1ccc2cc1OCCOCCNc1ccn3ncc-2c3n1 [compound 17]
45 | 2 °C | O=C(NCc1ccc(Cl)cc1Cl)Nc1ccc2cc1OCCOCCNc1ccn3ncc-2c3n1 [compound 20]
46 | 2 °C | O=C(NCc1ccc(Cl)cc1)Nc1ccc2cc1OCCOCCNc1ccn3ncc-2c3n1 [compound 19]
47 | 1.7 °C | O=C(NCc1ccccc1)Nc1ccc2cc1OCCOCCNc1ccn3ncc-2c3n1 [compound 16]

Test system: RPS6KA5A
Assay: DSF Tm panel
Format: binding
Details: 10 μM compound
Protocol: The synthesized urea-based derivatives were evaluated in a panel of kinases by differential scanning fluorescence (DSF) to investigate their selectivity profile. A positive ΔT m in the DSF assay indicates stabilization of the protein upon ligand binding in comparison to its apo state, with higher thermal shifts generally correlating with stronger binding. For this purpose, we used our internal kinase selectivity panel (∼90 kinases) along with staurosporine as a positive control. […]
was performed as previously described.[1,2] Briefly, recombinant protein kinase domains at a concentration of 2 μM were mixed with 10 μM compound in a buffer containing 20 mM HEPES, […]
probe (1 µl per mL). Subsequently, temperature-dependent protein unfolding profiles were […]
The temperature was raised with a step rate of 3 °C per minute. […]
inflection point of the transition curve. […]
previously.[3] In brief, STK10, STK3, STK4 and SLK were obtained as plasmids cloned in […]
Plasmids were transfected into
KD concentration taken from TracerDB (tracerdb.org)[4] were pipetted into white 384-well

Row | Structure (SMILES) | ΔTm RPS6KA5A
48 | Cc1cc(Br)ccc1CNC(=O)Nc1ccc2cc1OCCOCCNc1ccn3ncc-2c3n1 [compound 24] | 1,0 °C
49 | Cc1ccc(F)cc1CNC(=O)Nc1ccc2cc1OCCOCCNc1ccn3ncc-2c3n1 [compound 26] | 0,7 °C

Molecular target: T8, MAPK8B (Homo sapiens, UniProt P45983)
T8 construct: purchased in-house DSF kinase panel (SGC-style construct names; the trailing letter is the construct ID)
Assay: DSF Tm panel
Format: binding
Details: 10 μM compound

T8 sequence (P45983 1-364): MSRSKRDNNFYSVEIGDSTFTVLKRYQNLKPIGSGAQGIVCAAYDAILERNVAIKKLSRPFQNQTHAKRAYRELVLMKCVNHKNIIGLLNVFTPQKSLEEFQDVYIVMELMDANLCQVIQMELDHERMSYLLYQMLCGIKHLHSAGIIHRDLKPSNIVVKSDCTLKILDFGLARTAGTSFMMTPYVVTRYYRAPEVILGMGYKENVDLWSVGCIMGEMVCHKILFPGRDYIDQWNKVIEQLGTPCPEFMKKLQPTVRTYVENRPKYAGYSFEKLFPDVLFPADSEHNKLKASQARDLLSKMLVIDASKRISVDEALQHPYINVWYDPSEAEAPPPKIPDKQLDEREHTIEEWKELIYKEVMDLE

Row | Structure (SMILES) | ΔTm at 10 µM
50 | Cc1cc(Br)ccc1CNC(=O)Nc1ccc2cc1OCCOCCNc1ccn3ncc-2c3n1 [compound 24] | 0.6 °C
51 | Cc1ccc(F)cc1CNC(=O)Nc1ccc2cc1OCCOCCNc1ccn3ncc-2c3n1 [compound 26] | 0.5 °C

Molecular target: T9, NEK7A (Homo sapiens, UniProt Q8TDX7)
T9 construct: purchased in-house DSF kinase panel (SGC-style construct names; the trailing letter is the construct ID)
Assay: DSF Tm panel
Format: binding
Details: 10 μM compound

T9 sequence (Q8TDX7 whole entry): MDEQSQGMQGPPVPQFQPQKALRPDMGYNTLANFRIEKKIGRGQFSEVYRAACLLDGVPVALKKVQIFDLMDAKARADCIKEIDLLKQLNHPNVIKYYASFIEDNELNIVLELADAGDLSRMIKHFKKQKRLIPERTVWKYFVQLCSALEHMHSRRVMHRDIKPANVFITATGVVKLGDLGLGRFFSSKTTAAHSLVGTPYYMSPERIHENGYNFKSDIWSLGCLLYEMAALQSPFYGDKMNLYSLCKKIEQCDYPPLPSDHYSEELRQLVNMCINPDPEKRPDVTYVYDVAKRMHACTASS

Row | Structure (SMILES) | ΔTm at 10 µM
52 | Cc1cc(Br)ccc1CNC(=O)Nc1ccc2cc1OCCOCCNc1ccn3ncc-2c3n1 [compound 24] | 1.6 °C
53 | Cc1ccc(F)cc1CNC(=O)Nc1ccc2cc1OCCOCCNc1ccn3ncc-2c3n1 [compound 26] | 0.9 °C

Molecular target: T10, MST3A (Homo sapiens, UniProt Q9Y6E0)
T10 construct: purchased in-house DSF kinase panel (SGC-style construct names; the trailing letter is the construct ID)
Assay: DSF Tm panel
Format: binding
Details: 10 μM compound

T10 sequence (Q9Y6E0 whole entry): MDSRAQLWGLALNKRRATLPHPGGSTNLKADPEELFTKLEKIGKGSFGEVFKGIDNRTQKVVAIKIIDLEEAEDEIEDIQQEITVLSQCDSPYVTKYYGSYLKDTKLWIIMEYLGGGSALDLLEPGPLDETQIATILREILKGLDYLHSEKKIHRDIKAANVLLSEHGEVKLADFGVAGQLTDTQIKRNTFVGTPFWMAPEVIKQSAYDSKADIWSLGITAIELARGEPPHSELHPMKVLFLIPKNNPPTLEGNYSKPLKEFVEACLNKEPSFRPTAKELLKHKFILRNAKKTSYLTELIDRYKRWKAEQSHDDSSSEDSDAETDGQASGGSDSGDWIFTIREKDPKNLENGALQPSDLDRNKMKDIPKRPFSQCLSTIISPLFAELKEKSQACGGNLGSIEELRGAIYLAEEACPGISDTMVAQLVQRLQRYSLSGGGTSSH

Row | Structure (SMILES) | ΔTm at 10 µM
54 | O=C(NCc1cccc(Cl)c1)Nc1ccc2cc1OCCOCCNc1ccn3ncc-2c3n1 [compound 18] | 0.7 °C
55 | O=C(NCc1ccc(Cl)cc1F)Nc1ccc2cc1OCCOCCNc1ccn3ncc-2c3n1 [compound 21] | 0.6 °C
56 | Cc1cc(Cl)ccc1CNC(=O)Nc1ccc2cc1OCCOCCNc1ccn3ncc-2c3n1 [compound 23] | 0.3 °C
57 | Cc1cc(Br)ccc1CNC(=O)Nc1ccc2cc1OCCOCCNc1ccn3ncc-2c3n1 [compound 24] | -4.3 °C
58 | Cc1ccc(F)cc1CNC(=O)Nc1ccc2cc1OCCOCCNc1ccn3ncc-2c3n1 [compound 26] | -2 °C

Continued, values first:

Row | ΔTm at 10 µM | Structure (SMILES)
59 | 0.7 °C | O=C(NCc1ccccc1Cl)Nc1ccc2cc1OCCOCCNc1ccn3ncc-2c3n1 [compound 17]
60 | 0 °C | O=C(NCc1ccc(Cl)cc1Cl)Nc1ccc2cc1OCCOCCNc1ccn3ncc-2c3n1 [compound 20]
61 | 0.7 °C | O=C(NCc1ccc(Cl)cc1)Nc1ccc2cc1OCCOCCNc1ccn3ncc-2c3n1 [compound 19]
62 | 1.5 °C | O=C(NCc1ccccc1)Nc1ccc2cc1OCCOCCNc1ccn3ncc-2c3n1 [compound 16]
